Values after ≈ are worked out from the molar mass of the structure shown. Active and inactive are the calls of the source. The calls are words filed in the database; no cut-off is given here.
Columns and labels:
Pseudococcus viburni = assay: Insecticidal activity against Pseudococcus viburni; assay type: functional, organism-based
Pseudococcus affinis = assay: Insecticidal activity against Pseudococcus affinis; assay type: functional, organism-based
Lactuca sativa [1] = assay: Phytotoxicity in naked Lactuca sativa (lettuce) assessed as change in visual quality after compound application through two-tier reduced pressure fumigation at 30 mmHg for 0.5 hr and then 760 mmHg for 1.5 hr at 23 +/- 1 degC after 2 hr; assay type: organism-based; conditions: in vivo
Brevicoryne brassicae = assay: Insecticidal activity against Brevicoryne brassicae (cabbage aphids); assay type: functional, organism-based
Myzus persicae [2] = assay: Insecticidal activity against Myzus persicae (green peach aphid) applied through two-tier reduced pressure fumigation at 30 mmHg for 0.5 hr and then 760 mmHg for 1.5 hr at 23 +/- 1 degC; assay type: functional
[3] = tested on: Frankliniella occidentalis; assay: Insecticidal activity against Frankliniella occidentalis (western flower thrips); assay type: functional, organism-based
Myzus persicae [4] = assay: Insecticidal activity against Myzus persicae (green peach aphid) placed under third leaf of naked Iceburg lettuce heads and after compound application for 2 hr through two-tier reduced pressure fumigation at 30 mmHg for 0.5 hr and then 760 mmHg for 1.5 hr at 23 +/- 1 degC measured after 24 hr; assay type: functional; conditions: for LC50: Myzus persicae, read-out: LD50 (the source's name)
Lactuca sativa [5] = assay: Phytotoxicity in naked Lactuca sativa (lettuce) assessed as residual aldehyde odor after compound application through two-tier reduced pressure fumigation at 30 mmHg for 0.5 hr and then 760 mmHg for 1.5 hr at 23 +/- 1 degC after 2 hr; assay type: organism-based; conditions: in vivo
Bemisia = assay: Insecticidal activity against Bemisia sp.; assay type: functional, organism-based
Tetranychus urticae = assay: Insecticidal activity against Tetranychus urticae (two-spotted spider mite); assay type: functional, organism-based
Vitis vinifera [6] = assay: (§1) Phytotoxicity in Vitis vinifera assessed as induction of visual damage after compound application for 1 hr through two-tier reduced pressure fumigation at 30 mmHg for 0.5 hr and then 760 mmHg for 1.5 hr at 23 +/- 1 degC; assay type: organism-based; conditions: in vivo
[7] = tested on: Brassica oleracea var. capitata; assay: Phytotoxicity in Brassica oleracea var. capitata (cabbage) assessed as induction of olfactory damage after compound application for 1 hr through two-tier reduced pressure fumigation at 30 mmHg for 0.5 hr and then 760 mmHg for 1.5 hr at 23 +/- 1 degC; assay type: organism-based; conditions: in vivo
Citrus x paradisi [8] = assay: Phytotoxicity in Citrus x paradisi (grape fruit) assessed as induction of olfactory damage after compound application for 1 hr through two-tier reduced pressure fumigation at 30 mmHg for 0.5 hr and then 760 mmHg for 1.5 hr at 23 +/- 1 degC; assay type: organism-based; conditions: in vivo
Vitis vinifera [9] = assay: (§2) Phytotoxicity in Vitis vinifera assessed as induction of olfactory damage after compound application for 1 hr through two-tier reduced pressure fumigation at 30 mmHg for 0.5 hr and then 760 mmHg for 1.5 hr at 23 +/- 1 degC; assay type: organism-based; conditions: in vivo
Malus domestica [10] = assay: Phytotoxicity in Malus x domestica (apple) assessed as induction of visual damage after compound application for 1 hr through two-tier reduced pressure fumigation at 30 mmHg for 0.5 hr and then 760 mmHg for 1.5 hr at 23 +/- 1 degC; assay type: organism-based; conditions: in vivo
Vitis vinifera [11] = assay: as §1; assay type: organism-based; conditions: in vivo; remark: listed apart in the source
Lactuca sativa [12] = assay: Phytotoxicity in naked Lactuca sativa (lettuce) assessed as change in visual quality after compound application for 1 hr through two-tier reduced pressure fumigation at 30 mmHg for 0.5 hr and then 760 mmHg for 1.5 hr at 23 +/- 1 degC; assay type: organism-based; conditions: in vivo
Lactuca sativa [13] = assay: Phytotoxicity in wrapped Lactuca sativa (lettuce) assessed as induction of olfactory damage after compound application for 1 hr through two-tier reduced pressure fumigation at 30 mmHg for 0.5 hr and then 760 mmHg for 1.5 hr at 23 +/- 1 degC; assay type: organism-based; conditions: in vivo
Persea americana [14] = assay: Phytotoxicity in Persea americana (avocado) assessed as induction of visual damage after compound application for 1 hr through two-tier reduced pressure fumigation at 30 mmHg for 0.5 hr and then 760 mmHg for 1.5 hr at 23 +/- 1 degC; assay type: organism-based; conditions: in vivo
[15] = tested on: Brassica oleracea var. italica; assay: Phytotoxicity in Brassica oleracea var. italica assessed as induction of olfactory damage after compound application for 1 hr through two-tier reduced pressure fumigation at 30 mmHg for 0.5 hr and then 760 mmHg for 1.5 hr at 23 +/- 1 degC; assay type: organism-based; conditions: in vivo
Malus domestica [16] = assay: Phytotoxicity in Malus x domestica (apple) assessed as induction of olfactory damage after compound application for 1 hr through two-tier reduced pressure fumigation at 30 mmHg for 0.5 hr and then 760 mmHg for 1.5 hr at 23 +/- 1 degC; assay type: organism-based; conditions: in vivo
Myzus persicae [17] = assay: Insecticidal activity against Myzus persicae (green peach aphid) infested naked lettuce applied for 1 hr through two-tier reduced pressure fumigation at 30 mmHg for 0.5 hr and then 760 mmHg for 1.5 hr at 23 +/- 1 degC measured 24 hr; assay type: functional, organism-based
Vitis vinifera [18] = assay: as §2; assay type: organism-based; conditions: in vivo; remark: listed apart in the source
[19] = tested on: Brassica oleracea var. italica; assay: Phytotoxicity in Brassica oleracea var. italica after compound application for 1 hr through two-tier reduced pressure fumigation at 30 mmHg for 0.5 hr and then 760 mmHg for 1.5 hr at 23 +/- 1 degC; assay type: organism-based; conditions: in vivo
Persea americana [20] = assay: Phytotoxicity in Persea americana (avocado) assessed as induction of olfactory damage after compound application for 1 hr through two-tier reduced pressure fumigation at 30 mmHg for 0.5 hr and then 760 mmHg for 1.5 hr at 23 +/- 1 degC; assay type: organism-based; conditions: in vivo
Myzus persicae [21] = assay: Insecticidal activity against Myzus persicae (green peach aphid) infested wrapped lettuce applied for 1 hr through two-tier reduced pressure fumigation at 30 mmHg for 0.5 hr and then 760 mmHg for 1.5 hr at 23 +/- 1 degC measured 24 hr; assay type: functional, organism-based
Oryza sativa = assay: Phytotoxicity in Oryza sativa (rice) assessed as induction of olfactory damage after compound application for 1 hr through two-tier reduced pressure fumigation at 30 mmHg for 0.5 hr and then 760 mmHg for 1.5 hr at 23 +/- 1 degC; assay type: organism-based; conditions: in vivo
Lactuca sativa [22] = assay: Phytotoxicity in naked Lactuca sativa (lettuce) assessed as induction of olfactory damage after compound application for 1 hr through two-tier reduced pressure fumigation at 30 mmHg for 0.5 hr and then 760 mmHg for 1.5 hr at 23 +/- 1 degC; assay type: organism-based; conditions: in vivo
[23] = tested on: Brassica oleracea var. capitata; assay: Phytotoxicity in Brassica oleracea var. capitata (cabbage) after compound application for 1 hr through two-tier reduced pressure fumigation at 30 mmHg for 0.5 hr and then 760 mmHg for 1.5 hr at 23 +/- 1 degC; assay type: organism-based; conditions: in vivo
Lactuca sativa [24] = assay: Phytotoxicity in naked Lactuca sativa (lettuce) after compound application for 1 hr through two-tier reduced pressure fumigation at 30 mmHg for 0.5 hr and then 760 mmHg for 1.5 hr at 23 +/- 1 degC; assay type: organism-based; conditions: in vivo
Citrus x paradisi [25] = assay: Phytotoxicity in Citrus x paradisi (grape fruit) assessed as induction of visual damage after compound application for 1 hr through two-tier reduced pressure fumigation at 30 mmHg for 0.5 hr and then 760 mmHg for 1.5 hr at 23 +/- 1 degC; assay type: organism-based; conditions: in vivo
Myzus persicae [26] = assay: Insecticidal activity against Myzus persicae (green peach aphid) applied through atmospheric pressure fumigation at 760 mmHg for 2 hr at 23 +/- 1 degC; assay type: functional; conditions: read-out: LD50 (the source's name)
Myzus persicae [27] = assay: Potentiation factor, ratio of LD50 for Myzus persicae (green peach aphid) applied through atmospheric pressure fumigation at 760 mmHg for 2 hr at 23 +/- 1 degC to LD50 for Myzus persicae (green peach aphid) applied through two-tier reduced pressure fumigation at 30 mmHg for 0.5 hr and then 760 mmHg for 1.5 hr at 23 +/- 1 degC; assay type: functional

CC(C)C=O [ISOBUTYRALDEHYDE]
Activity (Pseudococcus viburni): Active
Activity (Pseudococcus affinis): Active
Activity (Lactuca sativa [1]): Toxic
Activity (Brevicoryne brassicae): inactive
CTP (Myzus persicae [2]): 9.2 mg/L.hr
Activity [3]: Active
LD90 (Myzus persicae [4]): 224.1 mg/L
Activity (Lactuca sativa [5]): Toxic
Activity (Bemisia): Active
Activity (Tetranychus urticae): inactive

C/C=C(\C)C=O [2-methyl-(E)-2-butenal]
Activity (Vitis vinifera [6]): Non-toxic
Activity (Pseudococcus viburni): Active
Activity [7]: Toxic
Activity (Citrus x paradisi [8]): Non-toxic
Activity (Vitis vinifera [9]): Non-toxic
Activity (Malus domestica [10]): Non-toxic
Activity (Pseudococcus affinis): Active
Activity (Lactuca sativa [1]): Toxic
Activity (Vitis vinifera [11]): Non-toxic
Activity (Brevicoryne brassicae): inactive
Activity (Lactuca sativa [12]): Toxic
Activity (Lactuca sativa [13]): Toxic
Activity (Persea americana [14]): Non-toxic
Activity [15]: Toxic
Activity (Malus domestica [16]): Non-toxic
Activity [3]: Active
Activity (Myzus persicae [17]): Active
Activity (Vitis vinifera [18]): Non-toxic
CTP (Myzus persicae [4]): 310 mg/L.hr
LD90 (Myzus persicae [4]): 123.6 mg/L
LC50 (Myzus persicae [4]): 76.6 µg/mL (≈ 911 µM)
Activity (Lactuca sativa [5]): Toxic
Activity [19]: Toxic
Activity (Persea americana [20]): Non-toxic
Activity (Myzus persicae [21]): Active
Activity (Oryza sativa): Toxic
Activity (Lactuca sativa [22]): Toxic
Activity (Bemisia): Active
Activity [23]: Toxic
Activity (Lactuca sativa [24]): Toxic
Activity (Tetranychus urticae): inactive
Activity (Citrus x paradisi [25]): Non-toxic

CCCCCCC=O [HEPTANAL]
LC50 (Myzus persicae [26]): 15 µg/mL (≈ 131 µM)
Ratio (Myzus persicae [27]): 3
LC50 (Myzus persicae [2]; Myzus persicae, read-out: LD50 (the source's name)): 5 µg/mL (≈ 43.8 µM)

CCCC(C)C=O (stereo not given) [2-METHYLPENTANAL]
Activity (Pseudococcus viburni): Active
Activity (Pseudococcus affinis): Active
Activity (Lactuca sativa [1]): Toxic
Activity (Brevicoryne brassicae): inactive
Activity [3]: Active
LD90 (Myzus persicae [4]): 54.2 mg/L
LC50 (Myzus persicae [4]): 39.9 µg/mL (≈ 398 µM)
Activity (Lactuca sativa [5]): Toxic
Activity (Bemisia): Active
Activity (Tetranychus urticae): inactive

CCC(C)C=O (stereo not given) [2-METHYLBUTANAL]
Activity (Pseudococcus viburni): Active
Activity (Pseudococcus affinis): Active
Activity (Lactuca sativa [1]): Toxic
Activity (Brevicoryne brassicae): inactive
Activity [3]: Active
LD90 (Myzus persicae [4]): 184.4 mg/L
LC50 (Myzus persicae [4]): 138 µg/mL (≈ 1610 µM)
Activity (Lactuca sativa [5]): Toxic
Activity (Bemisia): Active
Activity (Tetranychus urticae): inactive

— ChEMBL document CHEMBL3046689, “Volatile aldehydes are promising broad-spectrum postharvest insecticides” (J Agric Food Chem, 2000)
